Results from PubChem BioAssay AID1259407 (Chemical Carcinogenesis Research Information System (CCRIS), 2018).
Active and inactive are the calls of the source. The rule behind the calls is not given here.

Test system: CCRIS mutagenicity, Ames/micronucleus/aberration tests
Experiment: CCRIS mutagenicity studies
[1] = Test System: AMES SALMONELLA TYPHIMURIUM, Strain/Indicator: TA98, Metabolic Activation: HAMSTER, LIVER, S-9, AROCLOR 1254 (10%), Method: PREINCUBATION
[2] = Test System: AMES SALMONELLA TYPHIMURIUM, Strain/Indicator: TA98, Metabolic Activation: NONE, Method: PREINCUBATION
[3] = Test System: AMES SALMONELLA TYPHIMURIUM, Strain/Indicator: TA98, Metabolic Activation: RAT, LIVER, S-9, AROCLOR 1254 (10%), Method: PREINCUBATION
[4] = Test System: AMES SALMONELLA TYPHIMURIUM, Strain/Indicator: TA100, Metabolic Activation: HAMSTER, LIVER, S-9, AROCLOR 1254 (10%), Method: PREINCUBATION
[5] = Test System: AMES SALMONELLA TYPHIMURIUM, Strain/Indicator: TA100, Metabolic Activation: NONE, Method: PREINCUBATION
[6] = Test System: AMES SALMONELLA TYPHIMURIUM, Strain/Indicator: TA100, Metabolic Activation: RAT, LIVER, S-9, AROCLOR 1254 (10%), Method: PREINCUBATION
[7] = Test System: AMES SALMONELLA TYPHIMURIUM, Strain/Indicator: TA1535, Metabolic Activation: HAMSTER, LIVER, S-9, AROCLOR 1254 (10%), Method: PREINCUBATION
[8] = Test System: AMES SALMONELLA TYPHIMURIUM, Strain/Indicator: TA1535, Metabolic Activation: NONE, Method: PREINCUBATION
[9] = Test System: AMES SALMONELLA TYPHIMURIUM, Strain/Indicator: TA1535, Metabolic Activation: RAT, LIVER, S-9, AROCLOR 1254 (10%), Method: PREINCUBATION
[10] = Test System: AMES SALMONELLA TYPHIMURIUM, Strain/Indicator: TA1537, Metabolic Activation: HAMSTER, LIVER, S-9, AROCLOR 1254 (10%), Method: PREINCUBATION
[11] = Test System: AMES SALMONELLA TYPHIMURIUM, Strain/Indicator: TA1537, Metabolic Activation: NONE, Method: PREINCUBATION
[12] = Test System: AMES SALMONELLA TYPHIMURIUM, Strain/Indicator: TA1537, Metabolic Activation: RAT, LIVER, S-9, AROCLOR 1254 (10%), Method: PREINCUBATION
[13] = Test System: AMES SALMONELLA TYPHIMURIUM, Strain/Indicator: TA100, Metabolic Activation: NONE, Method: STANDARD PLATE
[14] = Test System: AMES SALMONELLA TYPHIMURIUM, Strain/Indicator: TA100, Metabolic Activation: RAT, LIVER, S-9, AROCLOR 1254, Method: STANDARD PLATE

`O=c1ccc(=O)[nH][nH]1` was tested, and the mutagenic call (End Point: IN VITRO CHROMOSOMAL ABERRATIONS, Test System: HUMAN PERIPHERAL BLOOD LYMPHOCYTES, Metabolic Activation: NONE) was “inactive; negative”, the mutagenic call (End Point: IN VITRO MICRONUCLEUS, Test System: HUMAN PERIPHERAL BLOOD LYMPHOCYTES, Metabolic Activation: NONE) was “inactive; negative” and the mutagenic call (End Point: IN VITRO MICRONUCLEUS, Test System: HUMAN PERIPHERAL BLOOD LYMPHOCYTES, Metabolic Activation: S-9) was “inactive; negative”. The mutagenic call [1] was “inactive; negative”, the mutagenic call [2] was “inactive; negative” and the mutagenic call [3] was “inactive; negative”. The mutagenic call [4] was “inactive; negative”, the mutagenic call [5] was “inactive; negative” and the mutagenic call [6] was “inactive; negative”. For the same molecule, the mutagenic call [7] was “inactive; negative”, the mutagenic call [8] was “inactive; negative” and the mutagenic call [9] was “inactive; negative”. The mutagenic call [10] was “inactive; negative”, the mutagenic call [11] was “inactive; negative” and the mutagenic call [12] was “inactive; negative”.

`CC(C)CC(=O)CC(C)C` was tested, and the mutagenic call [1] was “inactive; negative”, the mutagenic call [2] was “inactive; negative” and the mutagenic call [3] was “inactive; negative”. The mutagenic call [4] was “inactive; negative”, the mutagenic call [5] was “inactive; negative” and the mutagenic call [6] was “inactive; negative”. The mutagenic call [7] was “inactive; negative”, the mutagenic call (Test System: AMES SALMONELLA TYPHIMURIUM, Strain/Indicator: TA1535, Metabolic Activation: HAMSTER, LIVER, S-9, AROCLOR 1254 (50%), Method: PREINCUBATION) was “inactive; negative” and the mutagenic call [8] was “inactive; negative”. For the same molecule, the mutagenic call [9] was “inactive; negative”, the mutagenic call (Test System: AMES SALMONELLA TYPHIMURIUM, Strain/Indicator: TA1535, Metabolic Activation: RAT, LIVER, S-9, AROCLOR 1254 (50%), Method: PREINCUBATION) was “inactive; negative” and the mutagenic call [10] was “inactive; negative”. For the same molecule, the mutagenic call (Test System: AMES SALMONELLA TYPHIMURIUM, Strain/Indicator: TA1537, Metabolic Activation: HAMSTER, LIVER, S-9, AROCLOR 1254 (50%), Method: PREINCUBATION) was “inactive; negative”, the mutagenic call [11] was “inactive; negative” and the mutagenic call [12] was “inactive; negative”. For the same molecule, the mutagenic call (Test System: AMES SALMONELLA TYPHIMURIUM, Strain/Indicator: TA1537, Metabolic Activation: RAT, LIVER, S-9, AROCLOR 1254 (50%), Method: PREINCUBATION) was “inactive; negative”.

For `Nc1c2ccccc2nc2ccc(Br)cc12`, the mutagenic call [11] was “active; positive”.

In the case of `O=[Se](O)O`, the mutagenic call (End Point: IN VIVO CHROMOSOMAL ABERRATIONS, Test System: TESTICULAR CELLS, Species: MOUSE, Strain/Sex: KUNMING/MALE, Route: DIET) is reported as “selenite reduced number of chromosomal aberrations induced by mmc”, the mutagenic call (End Point: IN VIVO MICRONUCLEUS, Test System: BONE MARROW CELLS, POLYCHROMATIC ERYTHROCYTES, Species: MOUSE, Strain/Sex: KUNMING/FEMALE, Route: DIET) is reported as “selenite reduced micronuclei induced by cyclophosphamide” and the mutagenic call (Test System: AMES SALMONELLA TYPHIMURIUM, Strain/Indicator: TA1535, Metabolic Activation: NONE, Method: STANDARD PLATE) is reported as “active; positive”. For the same molecule, the mutagenic call (Test System: CHINESE HAMSTER OVARY, Strain/Indicator: CHO-K1-BH4 (HGPRT)/6-THIOGUANINE, Metabolic Activation: NONE) was “active; positive”, the mutagenic call (Test System: E. COLI, Strain/Indicator: WP2 UVRA, Metabolic Activation: NONE, Method: SPOT TEST) was “inactive; negative” and the mutagenic call (Test System: MOUSE LYMPHOMA, Strain/Indicator: L5178Y (TK+/TK-), Metabolic Activation: NONE, Method: SUSPENSION/PLATE) was “active; positive. reevaluation of results: positive”. The mutagenic call (Test System: MOUSE LYMPHOMA, Strain/Indicator: L5178Y (TK+/TK-), Metabolic Activation: RAT, LIVER, S-9, AROCLOR 1254, Method: SUSPENSION/PLATE) was “active; positive. reevaluation of results: positive” and the mutagenic call (Test System: UDS HUMAN FIBROBLASTS, Strain/Indicator: THY INCORP (NON-S-PHASE), Metabolic Activation: MOUSE, LIVER, S-9, Method: AUTORADIOGRAPHY) was “active; positive”.

In the case of `Cn1cnc2c(N)ncnc21`, the mutagenic call (Test System: AMES SALMONELLA TYPHIMURIUM, Strain/Indicator: TA97, Metabolic Activation: NONE, Method: STANDARD PLATE) is reported as “inactive; negative”, the mutagenic call (Test System: AMES SALMONELLA TYPHIMURIUM, Strain/Indicator: TA97, Metabolic Activation: RAT, LIVER, S-9, AROCLOR 1254, Method: STANDARD PLATE) is reported as “inactive; negative” and the mutagenic call (Test System: AMES SALMONELLA TYPHIMURIUM, Strain/Indicator: TA98, Metabolic Activation: NONE, Method: STANDARD PLATE) is reported as “inactive; negative”. The mutagenic call (Test System: AMES SALMONELLA TYPHIMURIUM, Strain/Indicator: TA98, Metabolic Activation: RAT, LIVER, S-9, AROCLOR 1254, Method: STANDARD PLATE) was “active; positive”, the mutagenic call [13] was “inactive; negative” and the mutagenic call [14] was “inactive; negative”.

`O=C(O)c1cc2c(c3c1c([N+](=O)[O-])cc1c(O)cccc13)OCO2` was tested, and the mutagenic call [13] was “active; positive”, the mutagenic call [14] was “inactive; negative” and the mutagenic call (Test System: AMES SALMONELLA TYPHIMURIUM, Strain/Indicator: TA1537, Metabolic Activation: NONE, Method: STANDARD PLATE) was “active; positive”. The mutagenic call (Test System: AMES SALMONELLA TYPHIMURIUM, Strain/Indicator: TA1537, Metabolic Activation: RAT, LIVER, S-9, AROCLOR 1254, Method: STANDARD PLATE) was “inactive; negative”.

`COc1ccc2c(cc3c4c(cc5c(c42)OCO5)CCN3C)c1OC` was tested, and the mutagenic call (Test System: AMES SALMONELLA TYPHIMURIUM, Strain/Indicator: TA98, Metabolic Activation: RAT, LIVER, S-9, PHENOBARBITAL AND BETA-NAPHTHOFLAVONE, Method: PREINCUBATION) was “active; positive” and the mutagenic call (Test System: AMES SALMONELLA TYPHIMURIUM, Strain/Indicator: TA100, Metabolic Activation: RAT, LIVER, S-9, PHENOBARBITAL AND BETA-NAPHTHOFLAVONE, Method: PREINCUBATION) was “active; positive”.

In the case of `Cc1c(O)cc2c(c1O)C(=O)c1cccc(O)c1C2=O`, the mutagenic call [2] is reported as “inactive; negative”, the mutagenic call (Test System: AMES SALMONELLA TYPHIMURIUM, Strain/Indicator: TA98, Metabolic Activation: RAT, LIVER, S-9, PCB, Method: PREINCUBATION) is reported as “active; positive” and the mutagenic call [5] is reported as “inactive; negative”. For the same molecule, the mutagenic call (Test System: AMES SALMONELLA TYPHIMURIUM, Strain/Indicator: TA100, Metabolic Activation: RAT, LIVER, S-9, PCB, Method: PREINCUBATION) was “active; positive”.
